How the values were obtained:
[1] = test system: TGF-β1-induced SMAD signaling pathway; experiment: RD SMAD reporter (RDSR) assay; type: cell-based; settings: Homo sapiens; 200 pg/ml rhTGF-beta1, 24 h
Source text: TGF-beta (also referred to as TGF-β1) is a multifunctional, highly conserved cytokine with many key functions in development, cell growth and apoptosis, and plays a key role in the tissue repair response and functions as a potent immune modulator. TGF-β signaling is triggered when the activated TGF-β homodimer binds to the TGF-β receptor 2, which in turn leads to the recruitment and phosphorylation of TGF-β receptor 1 (ALK5). Activated TGF-β receptor 1 phosphorylates the signal transduction molecules SMAD2 and SMAD3. These bind to common mediator SMAD4 and translocate to the nucleus where they bind to short conserved DNA sequences called the SMAD binding element and induce the transcription of various target genes.
A stable cellular reporter, the RD SMAD reporter (RDSR), was generated to test the ability of certain compounds disclosed herein to inhibit the canonical TGF-β1-induced SMAD signaling pathway in a cellular context. The RD SMAD reporter (RDSR) cell line was generated by stably integrating the SMAD cellular reporter plasmid (Promega, pGL4.48[luc2P/SBE/Hygro]) into the human rhabdomyosarcoma cell line RD (ATCC, CCL-136). Once SMAD signaling was triggered with, for example, the addition of TGF-beta1, receptor-activated SMADs bind the SMAD binding elements (SBEs) leading to the expression of intracellular luciferase.
The rhabdomyosarcoma line RD (ATCC, CCL-136) was transfected with a SMAD reporter vector (Promega, E3671) and a polyclonal stable cell line was selected using hygromycin B. The transfected vector contained three copies of a Smad-binding element (SBE) that drives transcription of the luciferase reporter gene luc2P (Photinus pyralis). luc2P is a synthetically-derived luciferase sequence with humanized codon optimization that is designed for high expression and reduced anomalous transcription. The luc2P gene contains hPEST, a protein destabilization sequence, which allows luc2P protein levels to respond more quickly than those of luc2 to induction of transcription. The intracellular luciferase is quantified by the addition of equal volume (100 μl) of ONE-GLO substrate (Promega, E6120) and read within ten minutes on the Envision plate reader. The stable RDSR cell line was tested by evaluating the response to human TGF-beta1 (R&D Systems, 7754-BH-005) as well as myostatin (R&D Systems, 788-G8-010/CF) in a concentration-dependent manner after twenty-four hours of stimulation. […] For compound evaluation, the tool compounds (vactosertib and PF-06952229 (a TGFβR1 inhibitor available from MedChem Express HY-136244) were included as positive controls) or test compounds were incubated with cells for one hour at 37° C. then stimulated with 200 pg/ml rhTGF-beta1 for twenty-four hours. The activity of the reporter was determined with the addition of ONE-GLO (Promega) substrate, and luminescence counts were collected on the Envision plate reader (Perkin Elmer). The IC50 or EC50 was calculated using nonlinear regression curve fitting with graph pad prism software.
A comparative RDSR analysis was performed using IC50 values for selected compounds and standards obtained using the RDSR assay protocol described in Example 3.
The tool compounds vactosertib (an ALK5 inhibitor sourced from MedChem Express, HY-19928) and PF-06952229 (a TGFβR1 inhibitor) were included in the study as comparator compounds. Selected example compounds or comparator compounds were incubated with cells for one hour at 37° C. then stimulated with 200 pg/ml rhTGF-beta1 for twenty-four hours. The activity of the reporter was determined by adding ONE-GLO (Promega) substrate, and collecting luminescence counts on the Envision plate reader (Perkin Elmer).
Each of the example compounds and comparator compounds were tested at drug concentrations of from 20 micromolar to 1 nanomolar, and the IC50 value for each was calculated using Graph Pad Prism software. DMSO was used as a negative control and all wells contained normalized DMSO concentrations. […]

[2] = test system: SMAD signaling triggered by myostatin; experiment: Myostatin-triggered SMAD signaling in RDSR cells; type: cell-based; settings: Homo sapiens, 50 ng/ml myostatin, 24 h
Protocol: To determine the ability of compounds to inhibit the SMAD signaling triggered by myostatin, and therefore possibly help alleviate cachexia in cancer patients, the following assay was performed. The RD cell line, a human rhabdomyosarcoma cell line, was purchased from ATCC (CCL-136) and a stably SMAD reporter plasmid (Promega, pGL4.48[luc2P/SBE/Hygro]) was introduced to create the RD SMAD Reporter (RDSR) cell line. Twenty thousand RDSR cells were seeded into a 96-well plate (Greiner bio-one 655083) in DMEM media supplemented with 10% fetal bovine serum. Cells were pre-incubated with selected compounds at various concentrations (8-point curve ranging from 10 micromolar to 610 picomolar) for one hour, then were stimulated with 50 nanograms per milliliter myostatin (R&D, 788-G8-010) for twenty-four hours. The luciferase signal was then read out with One-Glo substrate on the Envision plate reader.

| SMILES | EC50 [1] [nM] | IC50 [2] [nM] |
| --- | --- | --- |
| Cc1nn(CC(F)(F)F)cc1Nc1cc(Nc2cnnc3c(C)cccc23)ccn1 [Compound 01, N2-[3-methyl-1-(2,2,2-trifluoroethyl)-1H-pyrazol-4-yl]-N4-(8-methylcinnolin-4-yl)pyridine-2,4-diamine] | < 50 | 57.1 |
| Clc1cccc2c(Nc3ccnc(Nc4cccc(N5CCOCC5)c4)c3)cnnc12 [Compound 04, N4-(8-chlorocinnolin-4-yl)-N2-[3-(morpholin-4-yl)phenyl]pyridine-2,4-diamine] | < 50 | 19.1 |
| Cc1cccc2c(Nc3ccnc(Nc4ccc(N5CCOCC5)cc4)c3)cnnc12 [Compound 05, N4-(8-methylcinnolin-4-yl)-N2-[4-(morpholin-4-yl)phenyl]pyridine-2,4-diamine] | < 50 | – |
| Cc1cccc(-c2[nH]c(CNc3ccccc3F)nc2-c2ccc3ncnn3c2)n1 [Vactosertib, vactosertib, reference compound] | – | 16.4 |

— patent US20240197729A1, “ALK-5 Inhibitors and Uses Thereof” (Sumitomo Pharma Oncology, Inc., priority 2021, published 2024)
